Assay results published in patent US20120207763A1, “PYRROLOPYRIMIDINE COMPOUNDS AND THEIR USES” (ASTEX THERAPEUTICS LIMITED, priority 2006, published 2012).
Like-named read-outs stand apart in the source and are kept apart here.

How the values were obtained:
Type in all cases: biochemical
[1] = target: CDK4/Cyclin-D1 kinase complex (Homo sapiens, UniProt P11802); assay: CDK4 ELISA based assay, Rb Ser780 phosphorylation
From the text: The compounds that inhibit the CDK4 kinase activity would inhibit the signal output of the assay.

[2] = target: CDK2/Cyclin-A kinase complex (Homo sapiens, UniProt P24941); assay: CDK2 IMAP fluorescence polarization assay
Procedure, shortened: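 Fluorescence polarization (IMAP) using purified active CDK2/Cyclin-A complex with a TAMRA-tagged Histone H1-derived peptide substrate; phosphorylated peptide bound by a metal-containing reagent raises polarization. Inhibition read as reduced fluorescence polarization signal.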

CDK4 = CDK4 (Homo sapiens, UniProt P11802); assay: CDK4 HTRF assay; conditions: Table E; read-out: CDK4 HTRF/IC50 [umol l − 1]
Chain of CDK4 (P11802 whole entry): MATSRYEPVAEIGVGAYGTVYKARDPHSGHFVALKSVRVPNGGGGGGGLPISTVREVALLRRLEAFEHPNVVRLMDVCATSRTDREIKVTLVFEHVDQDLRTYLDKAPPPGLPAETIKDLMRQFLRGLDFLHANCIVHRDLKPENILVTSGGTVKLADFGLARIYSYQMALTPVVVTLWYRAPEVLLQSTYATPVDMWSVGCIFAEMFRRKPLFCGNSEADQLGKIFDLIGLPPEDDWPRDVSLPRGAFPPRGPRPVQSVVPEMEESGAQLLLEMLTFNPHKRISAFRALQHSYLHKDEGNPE
Chain of CDK4 (P24385 whole entry partner): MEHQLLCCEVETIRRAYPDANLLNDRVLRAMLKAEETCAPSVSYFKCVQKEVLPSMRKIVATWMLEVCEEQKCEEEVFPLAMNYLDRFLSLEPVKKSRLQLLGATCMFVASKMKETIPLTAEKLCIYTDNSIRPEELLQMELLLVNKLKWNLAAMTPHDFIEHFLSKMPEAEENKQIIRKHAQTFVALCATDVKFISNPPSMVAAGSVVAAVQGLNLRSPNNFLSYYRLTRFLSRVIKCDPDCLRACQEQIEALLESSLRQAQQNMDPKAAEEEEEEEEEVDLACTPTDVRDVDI

hCDK1/B = hCDK1/B (Homo sapiens, UniProt P06493); assay: hCDK1/B assay; conditions: Table E; read-out: hCDK1/B/IC50 [umol l − 1]
Chain of hCDK1/B (P06493 whole entry): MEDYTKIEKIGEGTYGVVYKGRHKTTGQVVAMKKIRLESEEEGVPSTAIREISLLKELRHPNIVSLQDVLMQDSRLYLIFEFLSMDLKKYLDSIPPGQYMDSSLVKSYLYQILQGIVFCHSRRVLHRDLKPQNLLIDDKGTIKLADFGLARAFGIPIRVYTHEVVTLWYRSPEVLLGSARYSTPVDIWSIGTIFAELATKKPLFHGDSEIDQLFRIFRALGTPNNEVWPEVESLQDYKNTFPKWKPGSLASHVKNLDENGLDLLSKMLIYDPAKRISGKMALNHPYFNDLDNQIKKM
Chain of hCDK1/B (P14635 whole entry partner): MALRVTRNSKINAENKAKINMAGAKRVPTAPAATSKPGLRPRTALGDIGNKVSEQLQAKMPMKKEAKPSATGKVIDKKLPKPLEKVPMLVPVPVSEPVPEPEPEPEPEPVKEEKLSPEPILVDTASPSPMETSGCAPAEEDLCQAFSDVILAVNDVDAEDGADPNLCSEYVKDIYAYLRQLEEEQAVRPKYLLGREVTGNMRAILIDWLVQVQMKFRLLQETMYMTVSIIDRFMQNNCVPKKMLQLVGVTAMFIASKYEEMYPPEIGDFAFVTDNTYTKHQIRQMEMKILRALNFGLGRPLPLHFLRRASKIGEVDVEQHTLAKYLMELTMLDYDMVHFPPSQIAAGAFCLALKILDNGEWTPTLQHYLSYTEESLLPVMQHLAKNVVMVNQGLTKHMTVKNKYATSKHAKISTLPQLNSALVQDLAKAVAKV

[3] = Table E, read-out: CDK4 ELISA assay IC50 [umol l−]
[4] = Table E, read-out: CDK2cyA IMAP/IC50 [umol l − 1]

Chain of CDK4/Cyclin-D1 kinase complex (P11802 whole entry): as the sequence (P11802 whole entry) above
Chain of CDK4/Cyclin-D1 kinase complex (P24385 whole entry partner): as the sequence (P24385 whole entry partner) above

Row | Structure (SMILES) | IC50 [1, 3] | IC50 [2, 4] | IC50 (CDK4) | further results
1 | Cc1cn(C2CCCCC2)c2nc(Nc3ccc(N4CCN(C)CC4)cc3)ncc12 [Example 269] | < 10 µM | > 10 µM | – | –
2 | CCC(CC)n1ccc2cnc(Nc3ccc(C4CCCN(C(=O)CC#N)C4)cc3)nc21 (stereo not drawn) [Example 215] | > 10 µM | – | – | –
3 | CCC(CC)n1cc(C)c2cnc(Nc3ccc(N4CCN(C(C)=O)CC4)cc3)nc21 [Example 263, 1-(4-{4-[7-(1-Ethyl-propyl)-5-methyl-7H-pyrrolo[2,3-d]pyrimidin-2-ylamino]-phenyl}-piperazin-1-yl)-ethanone] | > 10 µM | > 10 µM | – | –
4 | CCC(CC)n1ccc2cnc(Nc3cccc(OCCn4ccnc4)c3)nc21 [Example 213] | < 10 µM | < 1 µM | – | –
5 | CC1(C)C(=O)N(C2CCCC2)c2nc(Nc3ccc(N4CCNCC4)cn3)ncc21 | – | – | – | IC50 ([1]; Table C, read-out: CDK4 IC50): < 10 µM
6 | CCC(CC)n1ccc2cnc(Nc3ccc(C4CCCNC4)cc3)nc21 (stereo not drawn) [Example 211] | < 10 µM | < 10 µM | – | –
7 | CC(=O)c1cn(C2CCCC2)c2nc(Nc3ccc(N4CCNCC4)cc3)ncc12 [Example 326, 1-[7-cyclopentyl-2-(4-piperazin-1-yl-phenylamino)-7H-pyrrolo[2,3-d]pyrimidin-5-yl]-ethanone] | > 10 µM | – | 10 µM | –
8 | CCC(CC)n1cc(C)c2cnc(Nc3ccc(N4CCN(C)CC4)cc3)nc21 [Example 264] | > 10 µM | > 10 µM | – | –
9 | CCC(CC)n1ccc2cnc(Nc3ccc(C(=O)N4CCOCC4)cc3)nc21 [Example 212] | < 10 µM | < 1 µM | – | –
10 | CCC(CC)n1ccc2cnc(NC3CC3)nc21 [Example 218] | > 10 µM | – | – | –
11 | CCC(CC)N1C(=O)C(C)(C)c2cnc(Nc3ccc(N4CCN(C(=O)OC(C)(C)C)CC4)cc3)nc21 | – | – | – | IC50 ([1]; Table C, read-out: CDK4 IC50): > 10 µM
12 | CCC(CC)n1ccc2cnc(Nc3ccc(N4CCN(C(C)=O)CC4)cn3)nc21 [Example 206] | > 10 µM | > 10 µM | – | –
13 | CCC(CC)N1C(=O)C(C)(C)c2cnc(Nc3ccc(N4CCN(C(C)=O)CC4)cn3)nc21 | – | – | – | IC50 ([1]; Table C, read-out: CDK4 IC50): > 10 µM; IC50 ([2]; Table C, read-out: CDK2 IC50): > 10 µM
14 | CCC(CC)n1ccc2cnc(Nc3ccc(C4CCN(C(C)=O)CC4)cc3)nc21 [Example 214] | < 10 µM | > 10 µM | – | –
15 | CCC(CC)n1ccc2cnc(Nc3ccc(C(=O)NC4CCCC4)cc3)nc21 [Example 217] | > 10 µM | – | – | –
16 | CCCC(C(=O)OCC)n1ccc2cnc(Nc3ccc(N4CCN(C(C)=O)CC4)cc3)nc21 (stereo not drawn) [Example 224] | > 10 µM | – | > 10 µM | –
17 | CCC(CC)n1cc(C)c2cnc(Nc3ccc(C(=O)NC4CCCC4)cc3)nc21 [Example 319] | > 10 µM | – | – | –
18 | Cc1cn(C2CCCC2)c2nc(Nc3ccc(N4CCNCC4)cc3)ncc12 [drawing 150] | – | – | – | IC50 ([1]; Table C, read-out: CDK4 IC50): < 10 µM
19 | CN1CCN(c2ccc(Nc3ncc4ccn(C5CCCC5)c4n3)nc2)CC1 [Example 255] | > 10 µM | > 10 µM | – | –

Row | Structure (SMILES) | IC50 [1, 3] | IC50 [2, 4] | IC50 (CDK4) | further results
20 | CCC(CC)n1c(C)cc2cnc(Nc3ccc(N4CCN(C(C)=O)CC4)cc3)nc21 [Example 330] | > 10 µM | < 1 µM | – | –
21 | Cc1cn(C2CCCC2)c2nc(Nc3nccc4ccccc34)ncc12 [Example 303] | – | > 10 µM | > 10 µM | IC50 (hCDK1/B): > 10 µM
22 | OC[C@@H]1CCC(n2ccc3cnc(Nc4ccc(N5CCNCC5)cc4)nc32)C1 (stereo partly drawn) [Example 250] | – | < 1 µM | < 1 µM | IC50 (hCDK1/B): < 1 µM
23 | CCC(CC)n1ccc2cnc(Nc3ccc(N4CCN(C)CC4)c(F)c3)nc21 [Example 208] | < 10 µM | < 10 µM | – | –
24 | CCC(CC)n1ccc2cnc(Nc3ccc(N4CCN(C)CC4)cn3)nc21 [Example 207] | < 10 µM | > 10 µM | – | –
25 | Cc1cn(C2CCC(O)C2)c2nc(Nc3ccc(CN4CCNCC4)cc3)ncc12 (stereo not drawn) [Example 316] | – | < 1 µM | < 1 µM | IC50 (hCDK1/B): < 10 µM
26 | CC1CCC(n2ccc3cnc(Nc4ccc(N5CCNCC5)cc4)nc32)C1 (stereo not drawn) [Example 239] | – | < 10 µM | < 1 µM | IC50 (hCDK1/B): < 1 µM
27 | CCC(CC)N1C(=O)C(C)(C)c2cnc(Nc3ccc(N4CCNCC4)cn3)nc21 | – | – | – | IC50 ([1]; Table C, read-out: CDK4 IC50): < 10 µM; IC50 ([2]; Table C, read-out: CDK2 IC50): > 10 µM
28 | CCC(CC)N1C(=O)C(C)(C)c2cnc(Nc3ccc(N4CCN(C)CC4)cc3)nc21 [drawing 155] | – | – | – | IC50 ([1]; Table C, read-out: CDK4 IC50): < 10 µM; IC50 ([2]; Table C, read-out: CDK2 IC50): < 10 µM
29 | CCC(CC)n1c(C)cc2cnc(Nc3ccc(N4CCNCC4)cc3)nc21 [Example 329, [7-(1-Ethyl-propyl)-6-methyl-7H-pyrrolo[2,3-d]pyrimidin-2-yl]-(4-piperazin-1-yl-phenyl)-amine] | > 10 µM | < 1 µM | – | –
30 | CCC(CC)N1C(=O)C(C)(C)c2cnc(Nc3ccc(N4CCNCC4)cc3)nc21 [drawing 162] | – | – | – | IC50 ([1]; Table C, read-out: CDK4 IC50): < 10 µM
31 | CCC(C(=O)O)n1ccc2cnc(Nc3ccc(N4CCN(C(C)=O)CC4)cc3)nc21 (stereo not drawn) [Example 220] | > 10 µM | – | > 10 µM | –
32 | CCC(CC)N1C(=O)Cc2cnc(Nc3ccc(N4CCNCC4)cc3)nc21 | – | – | – | IC50 ([1]; Table C, read-out: CDK4 IC50): < 10 µM
33 | CCC(CC)n1ccc2cnc(NC3CCCC3)nc21 [Example 210] | > 10 µM | – | – | –
34 | Cc1cn(C2CCCC2)c2nc(NN3CCN(C)CC3)ncc12 [Example 306] | – | > 10 µM | > 10 µM | IC50 (hCDK1/B): > 10 µM
35 | c1cc2cn[nH]c2cc1Nc1ncc2ccn(C3CCCC3)c2n1 [Example 257] | < 10 µM | < 10 µM | – | –
36 | CCC(CC)N1C(=O)Cc2cnc(Nc3ccc(N4CCNCC4)cn3)nc21 | – | – | – | IC50 ([1]; Table C, read-out: CDK4 IC50): > 10 µM; IC50 ([2]; Table C, read-out: CDK2 IC50): < 10 µM
37 | CCC(CC)n1ccc2cnc(Nc3ccc(C4CCCN(C(C)=O)C4)cc3)nc21 (stereo not drawn) [Example 216] | < 10 µM | < 10 µM | – | –
38 | Cc1cn(C2CCCC2)c2nc(Nc3ccc4[nH]c(=O)[nH]c4c3)ncc12 [Example 279] | – | < 10 µM | < 1 µM | IC50 (hCDK1/B): < 10 µM

Continued, in another order:

Row | IC50 [1, 3] | IC50 [2, 4] | IC50 (CDK4) | Structure (SMILES) | further results
39 | > 10 µM | < 10 µM | < 1 µM | CCC(CC)n1c(C=NOC)cc2cnc(Nc3ccc(N4CCN(C(C)=O)CC4)cc3)nc21 [Example 364] | –
40 | < 10 µM | 10 µM | 10 µM | CC(=O)c1c(C)n(C2CCCC2)c2nc(Nc3ccc(N4CCNCC4)cc3)ncc12 [Example 333, 1-[7-Cyclopentyl-6-methyl-2-(4-piperazin-1-yl-phenylamino)-7H-pyrrolo[2,3-d]pyrimidin-5-yl]-ethanone] | –
41 | > 10 µM | – | – | CCC(CC)n1c(COC)cc2cnc(Nc3ccc(C(=O)NC4CCCC4)cc3)nc21 [Example 380] | –
42 | > 10 µM | – | > 10 µM | CCC(CC)n1c(COC)cc2cnc(Nc3ccc(N4CCN(C(=O)OC(C)(C)C)CC4)cc3)nc21 [Example 381] | –
43 | > 10 µM | > 10 µM | – | CCC(CC)n1c(COC)cc2cnc(Nc3ccc(N4CCN(C(C)=O)CC4)cc3)nc21 [Example 379] | –
44 | > 10 µM | < 1 µM | – | CCC(CC)n1c(CO)cc2cnc(Nc3ccc(N4CCN(C(C)=O)CC4)cc3)nc21 [Example 362, 1-(4-{4-[7-(1-Ethyl-propyl)-6-hydroxymethyl-7H-pyrrolo[2,3-d]pyrimidin-2-ylamino]-phenyl}-piperazin-1-yl)-ethanone] | –
45 | > 10 µM | – | – | CCC(CC)n1cc(C(=O)OC)c2cnc(Nc3ccc(N4CCNCC4)cc3)nc21 [Example 429] | –
46 | > 10 µM | > 10 µM | – | CCOC(OCC)c1cc2cnc(Nc3ccc(N4CCN(C(C)=O)CC4)cc3)nc2n1C(CC)CC [Example 360, 1-(4-{4-[6-Diethoxymethyl-7-(1-ethyl-propyl)-7H-pyrrolo[2,3-d]pyrimidin-2-ylamino]-phenyl}-piperazin-1-yl)-ethanone] | –
47 | > 10 µM | – | – | CCC(CC)n1cc(C(=O)OC)c2cnc(Nc3ccc(N4CCN(C(C)=O)CC4)cc3)nc21 [Example 428] | –
48 | > 10 µM | < 1 µM | – | CCC(CC)n1c(C)cc2cnc(Nc3ccc(C(=O)NC4CCCC4)cc3)nc21 [Example 331] | –
49 | – | > 15 µM | > 10 µM | CN(C)C(=O)c1cc2cnc(NCc3ccc(N4CCN(C(=O)OC(C)(C)C)CC4)cc3)nc2n1C1CCCC1 [Example 468] | IC50 (hCDK1/B): > 15 µM
50 | – | < 10 µM | < 1 µM | CN(C)C(=O)c1cc2cnc(Nc3ccc(N4CCN(C(=O)OC(C)(C)C)CC4)cc3)nc2n1C1CCCC1 [Example 463] | IC50 (hCDK1/B): < 10 µM
51 | – | < 10 µM | < 1 µM | Cc1c(-c2cnco2)n(C2CCCC2)c2nc(Nc3ccc(CN4CCNCC4)cn3)ncc12 [Example 403] | IC50 (hCDK1/B): < 10 µM
52 | – | < 1 µM | < 1 µM | Cc1c(-c2cnco2)n(C2CCCC2)c2nc(Nc3ccc(CN4CCNCC4)cc3)ncc12 [Example 402] | IC50 (hCDK1/B): < 1 µM
53 | > 10 µM | – | > 10 µM | CC(C)(C)OC(=O)N1CCN(c2ccc(Nc3ncc4ccn(C5CCCC5)c4n3)cc2)CC1 [Example 427] | –
54 | – | < 10 µM | < 1 µM | Cc1noc(-c2c(C)c3cnc(Nc4ccc(N5CCNCC5)cn4)nc3n2C2CCCC2)n1 [Example 407] | IC50 (hCDK1/B): < 10 µM
55 | – | > 15 µM | < 1 µM | CCC(CC)n1c(C(=O)Nc2cccc(C(F)(F)F)c2)cc2cnc(Nc3ccc(N4CCNCC4)cc3)nc21 [Example 350] | IC50 (hCDK1/B): > 10 µM
56 | – | > 10 µM | < 1 µM | Cc1c(C(N)=O)n(C2CCCC2)c2nc(Nc3ccc(N4CCNCC4)cn3)ncc12 [Example 391] | IC50 (hCDK1/B): > 10 µM
57 | – | < 10 µM | < 1 µM | CCC(CC)n1c(C(=O)Nc2cc[nH]n2)cc2cnc(Nc3ccc(N4CCNCC4)cc3)nc21 [Example 356] | IC50 (hCDK1/B): < 10 µM
58 | – | > 15 µM | < 1 µM | CCC(CC)n1c(C(=O)Nc2ccc(C)cc2)cc2cnc(Nc3ccc(N4CCNCC4)cc3)nc21 [Example 348] | IC50 (hCDK1/B): > 15 µM
